From patent US8287888B2, “Thermosensitive polyphosphazene-bioactive molecule conjugates, preparation method thereof and use thereof” (Korea Institute of Science and Technology, priority 2006, dated 2012)
≈ marks a conversion by molar mass, not a printed value.

Experiments:
[1] = Sol-gel phase transition with change of temperature (Brookfield rheometer); type: physicochemical; settings: for Gel solidity (maximum viscosity of the polymer solution) / Max. gelling temp. (temperature where the viscosity of the polymer solution reaches the maximum point): 10 wt % in phosphate buffered saline (pH 7.4)
Experimental: The poly(organophosphazene) conjugated with a drug or bioactivemolecules obtained in Examples 1 to 11 were respectively dissolved in phosphate buffered saline (pH 7.4) at 4° C. so as to make solutions with concentrations of 10 wt %. The solutions were put into a chamber of a Brookfield DV-III+ Rheometer equipped with a thermostatic bath (TC-501).

[2] = system: human breast adenocarcinoma (MCF-7); test: Anti-cancer activity in vitro, MTT; type: cell-based; settings: for IC50: Homo sapiens
Experimental: (§1) In order to find out anticancer activity in vitro of the poly(organophosphazene) conjugated with anti-cancer drug of the present invention, the trial as follows was performed about the human breast adenocarcinoma (MCF-7, the Korea Cell Line Bank) and the human cervix adenocarcinoma (Hela, the Korea Cell Line Bank).
(§2) For the in vitro cell experiment, in order to measure the genesistasis concentration to 50% (IC50) toward the cancer cell of the poly(organophosphazene) conjugated with anticancer drug, the analytical method using 3-(4,5-dimethylthiazol-2-yl)-2,5-diphenyl-2H-tetrazolium bromide (MTT) was performed [T. Mosmann, J. Immunol. Method, 65, (1985) 55].
(§3) The materials for to measuring were respectively melted in the DMSO (dimethylsulfoxide) of the small amount, and they were diluted to the distilled water with 200 times. The materials solution were added to the cancer cell that is MCF-7(the Korea Cell Line Bank) and Hela (the Korea Cell Line Bank). Then, they were added to 96-well microtiter plater to 1.0×10^4 cell/ml (the concentration of the cancer cell). And they were cultivated for 2, 3, 4 days, respectively, with 37° C. in 5% CO2 condition.
(§4) MTT solution (20 μl) was mixed the cultivated cell with, and they were more cultivated for 4 hours with 37° C. in 5% CO2 condition. After the upper culture medium of each cell was removed, DMSO (100 μl) was added to a well and they were shaken in the room temperature to the plate shaker with for 20 minutes, thereby dissolving the formazan crystal generated by reducing of MTT.

[3] = system: human cervix adenocarcinoma (Hela); test: Anti-cancer activity in vitro, MTT; type: cell-based; settings: for IC50: Homo sapiens, HeLa
Experimental: as §1, §2, §3, §4

[4] = system: Stomach cancer cells, SNU-601; test: Anti-cancer activity in vivo of hydrogel conjugated with doxorubicin; set-up: species or system nude mouse (Balb/C)
Experimental: The anti-cancer activity in vivo of the poly(organophosphazene) hydrogel conjugated with doxorubicin prepared by the method of Example 5 was determined by the following method.
A nude mouse (OrientalBio, Balb/C, female of 5-weeks old, 20 g) was used as an animal model for animal experimentation for an in vivo test. Stomach cancer cells, SNU-601 (1×10^7 cells, 0.2 ml, the Korean Cell Line Bank), were injected into the dorsum of the mouse. A polymer solution containing the 10 wt % poly(organophosphazene)-doxorubicin conjugate of Example 5 in phosphate buffered saline (pH 7.4) was prepared. 0.1 ml and 0.2 ml of the solution was respectively injected into the cancer cells, and the change in the size of the cancer cells was measured.
When the solution is injected in an amount as much as 0.1 ml, the amount of doxorubicin injected is 30 mg per 1 kg of the mouse weight. When the solution is injected in an amount as much as 0.2 ml, the amount of doxorubicin injected is 60 mg per 1 kg of the mouse weight.
(§5) As the control group, the magnitude transition of the cancer cell into which doxorubicin was injected in the amount of 30 mg per 1 kg of the mouse weight and that to which saline is administered instead of the anti-cancer drug were measured respectively. The number of mouse used was 10 heads respectively.

stomach cancer, SNU-601 = test: Anti-cancer activity in vivo of hydrogel conjugated with paclitaxel; set-up: species or system nude mouse (Balb/C)
Experimental: The anti-cancer activity in vivo of the poly(organophosphazene) hydrogel conjugated with paclitaxel prepared by the method of Example 1 was determined by the following method.
A nude mouse (OrientalBio, Balb/C, female of 5-weeks old, 20 g) was used as an animal model for animal experimentation for an in vivo test. Cells of stomach cancer, SNU-601 (1×10^7 cells, 0.2 ml, the Korean Cell Line Bank), were injected into the dorsum of the mouse. A polymer solution containing the 10 wt % poly(organophosphazene)-paclitaxel conjugate of Example 1 in phosphate buffered saline (pH 7.4) was prepared. 0.1 ml and 0.2 ml of the solution were respectively injected into the cancer cells, and the change in the size of the cells was measured.
When the solution is injected in an amount as much as 0.1 ml, the amount of paclitaxel injected is 10 mg per 1 kg of the mouse weight. When the solution is injected in an amount as much as 0.2 ml, the amount of paclitaxel injected is […] per 1 kg of the mouse weight.
as §5, with “which paclitaxel” for “which doxorubicin”, “of 60” for “of 30”, “that of the cancer cell into” for “that to”, “saline was” for “saline is”

[5] = Hydrolysis of the polymer with time by GPC molecular weight; type: physicochemical; settings: 10 wt % in PBS pH 7.4, 37° C., compared among Examples 3, 4 and 9

Which “Gel solidity (maximum viscosity of the polymer solution)” value (from here on “Gel solidity”) [1] does the source give for “poly[(isoleucineethylester)(aminomethoxypolyethyleneglycol 550)(glycylglycine)(glycylglycylglycin-arginine-glycin-asparagine-cerinicacidpeptied)phosphazene] [Example 8]” here?
The value was 318 Pa · s.

And the “Max. gelling temp. (temperature where the viscosity of the polymer solution reaches the maximum point)” value [1]?
Its value is 39 °C.

Which “Gel solidity” value [1] does the source give for “poly[(isoleucineethylester)(aminomethoxypolyethyleneglycol 550)(glycylglycine)(glycylglycyldoxorubicin)phosphazene] [Example 4]” here?
Its value is 88 Pa · s.

And the “Max. gelling temp. (temperature where the viscosity of the polymer solution reaches the maximum point)” value [1]?
The value was 37 °C.

What about the “Anti-cancer activity [IC50]” value ([2]; MCF-7, 2nd day) of the same compound?
Its value is 2.829 µg/mL.

What about the “Anti-cancer activity [IC50]” value ([2]; MCF-7, 3rd day) of the same compound?
Its value is 2.801 µg/mL.

What about the “Anti-cancer activity [IC50]” value ([2]; MCF-7, 4th day) of the same compound?
Its value is 1.641 µg/mL.

And the “Anti-cancer activity [IC50]” value ([3]; 2nd day)?
Its value is 1.425 µg/mL.

What about the “Anti-cancer activity [IC50]” value ([3]; 3rd day) of the same compound?
The value was 0.892 µg/mL.

And the “Anti-cancer activity [IC50]” value ([3]; 4th day)?
The value was 0.283 µg/mL.

Which “Gel solidity” value [1] does the source give for “poly[(isoleucineethylester)(aminomethoxypolyethyleneglycol 550)(glycylglycine)(glycylglycylglycin-arginine-glycin-asparagine-cerinicacidpeptied)phosphazene] [Example 7]” here?
The value was 145 Pa · s.

And the “Max. gelling temp. (temperature where the viscosity of the polymer solution reaches the maximum point)” value [1]?
The value was 42 °C.

Which “Gel solidity” value [1] does the source give for “poly[(isoleucineethylester)(aminomethoxypolyethyleneglycol 750)(glycylglycine)(glycylglycyldoxorubicin)phosphazene] [Example 6]” here?
The value was 313 Pa · s.

And the “Max. gelling temp. (temperature where the viscosity of the polymer solution reaches the maximum point)” value [1]?
Its value is 46 °C.

Which “mortality due to toxicity” value ([4]; free doxorubicin 30 mg/kg, after 14 days, 10 mice per group) does the source give for COc1cccc2c1C(=O)c1c(O)c3c(c(O)c1C2=O)C[C@@](O)(C(=O)CO)C[C@@H]3O[C@H]1C[C@H](N)[C@H](O)[C@H](C)O1 [doxorubicin, reference compound] here?
Its value is “all of mouse died”.

And the IC50 ([2]; MCF7, MCF-7, 2nd day)?
Its IC50 is 2.29 µg/mL (≈ 4.22 µM).

What about the IC50 ([2]; MCF7, MCF-7, 3rd day) of the same compound?
The IC50 was 1.69 µg/mL (≈ 3.11 µM).

And the IC50 ([2]; MCF7, MCF-7, 4th day)?
The IC50 was 1 µg/mL (≈ 1.85 µM).

And the IC50 ([3]; 2nd day)?
Its IC50 is 0.321 µg/mL (≈ 0.591 µM).

What about the IC50 ([3]; 3rd day) of the same compound?
The IC50 was 0.692 µg/mL (≈ 1.27 µM).

And the IC50 ([3]; 4th day)?
The IC50 was 0.19 µg/mL (≈ 0.35 µM).

What does the source list for “poly[(isoleucineethylester)(aminomethoxypolyethyleneglycol 550)(glycylglycine)(glycylglycyldoxorubicin)phosphazene] [Example 5]”?
Gel solidity (maximum viscosity of the polymer solution) [1]: 1477 Pa · s; Max. gelling temp. (temperature where the viscosity of the polymer solution reaches the maximum point) [1]: 39 °C; size of the cancer cells decreased to ([4]; 0.1 ml intratumoral (doxorubicin 30 mg/kg), after 14 days): 68%; size of the cancer cells decreased to ([4]; 0.1 ml intratumoral (doxorubicin 30 mg/kg), after 26 days): 173%; size of the cancer cells decreased to ([4]; 0.1 ml intratumoral (doxorubicin 30 mg/kg), after 28 days): 168%; size of the cancer cells decreased to ([4]; 0.2 ml intratumoral (doxorubicin 60 mg/kg), after 14 days): 155%; size of the cancer cells decreased to ([4]; 0.2 ml intratumoral (doxorubicin 60 mg/kg), after 22 days): 195%; size of the cancer cells decreased to ([4]; 0.2 ml intratumoral (doxorubicin 60 mg/kg), after 28 days): 182%; mortality ([4]; doxorubicin concentration of 30 mg/kg as hydrogel, 10 mice per group): did not die; mortality ([4]; doxorubicin concentration of 60 mg/kg as hydrogel, 10 mice per group): did not die

Which results are given for CC(=O)O[C@H]1C(=O)[C@@]2(C)[C@H]([C@H](OC(=O)c3ccccc3)[C@]3(O)C[C@H](OC(=O)[C@H](O)[C@@H](NC(=O)c4ccccc4)c4ccccc4)C(C)=C1C3(C)C)[C@]1(OC(C)=O)CO[C@@H]1C[C@@H]2O [paclitaxel, reference compound]?
IC50 ([2]; MCF7, MCF-7, 2nd day): 0.022 µg/mL (≈ 0.0258 µM); IC50 ([2]; MCF7, MCF-7, 3rd day): 0.006 µg/mL (≈ 0.00703 µM); IC50 ([2]; MCF7, MCF-7, 4th day): 0.002 µg/mL (≈ 0.00234 µM); IC50 ([3]; 2nd day): 0.083 µg/mL (≈ 0.0972 µM); IC50 ([3]; 3rd day): 0.021 µg/mL (≈ 0.0246 µM); IC50 ([3]; 4th day): 0.014 µg/mL (≈ 0.0164 µM); mice died due to toxicity (stomach cancer, SNU-601; 60 mg/kg, after 10 days, 10 mice per group): 8 mouse heads

What does the source list for “poly[(isoleucineethylester)(aminomethoxypolyethyleneglycol 550)(glycylglycine)(glycylglycylglycmethylester)(glycylglycylglycin-arginine-glycin-asparagine-cerinicacidpeptied)phosphazene] [Example 9]”?
Gel solidity (maximum viscosity of the polymer solution) [1]: 130 Pa · s; Max. gelling temp. (temperature where the viscosity of the polymer solution reaches the maximum point) [1]: 46 °C; viscosity in 37° C. ([1]; compared among Examples 3, 4 and 9): the lowest viscosity; speed of hydrolysis (reduced molecular weight by GPC) [5]: the most quickly hydrolyzed

With “poly[(isoleucineethylester)(aminomethoxypolyethyleneglycol 550)(glycylglycine)(glycylglycylglycylethylester)(glycylglycylglycin-arginine-glycin-asparagine-cerinicacidpeptied)phosphazene] [Example 10]” as the compound, how does the “Gel solidity” value [1] read?
The value was 238 Pa · s.

And the “Max. gelling temp. (temperature where the viscosity of the polymer solution reaches the maximum point)” value [1]?
Its value is 42 °C.

Which results are given for “poly[(isoleucineethylester)(aminomethoxypolyethyleneglycol 550)(glycylglycine)(glycylglycylpaclitaxel)phosphazene] [Example 1]”?
Gel solidity (maximum viscosity of the polymer solution) [1]: 128 Pa · s; Max. gelling temp. (temperature where the viscosity of the polymer solution reaches the maximum point) [1]: 40 °C; Anti-cancer activity [IC50] ([2]; MCF-7, 2nd day): 0.025 µg/mL; Anti-cancer activity [IC50] ([2]; MCF-7, 3rd day): 0.018 µg/mL; Anti-cancer activity [IC50] ([2]; MCF-7, 4th day): 0.003 µg/mL; Anti-cancer activity [IC50] ([3]; 2nd day): 0.099 µg/mL; Anti-cancer activity [IC50] ([3]; 3rd day): 0.057 µg/mL; Anti-cancer activity [IC50] ([3]; 4th day): 0.022 µg/mL; size of the cancer cells decreased to (stomach cancer, SNU-601; 0.1 ml intratumoral (paclitaxel 10 mg/kg), after 26 days): 60%; size of the cancer cells decreased to (stomach cancer, SNU-601; 0.1 ml intratumoral (paclitaxel 10 mg/kg), after 34 days): 57%; size of the cancer cells decreased to (stomach cancer, SNU-601; 0.2 ml intratumoral (paclitaxel 30 mg/kg), after 26 days): 81%; size of the cancer cells decreased to (stomach cancer, SNU-601; 0.2 ml intratumoral (paclitaxel 30 mg/kg), after 34 days): 81%

What does the source list for “poly[(isoleucineethylester)(aminomethoxypolyethyleneglycol 550)(glycylglycine)(glycylglycin)(glycylglycylglycin-arginine-glycin-asparagine-cerinicacidpeptied)phosphazene] [Example 11]”?
Gel solidity (maximum viscosity of the polymer solution) [1]: 155 Pa · s; Max. gelling temp. (temperature where the viscosity of the polymer solution reaches the maximum point) [1]: 44 °C

With “poly[(isoleucineethylester)(aminomethoxypolyethyleneglycol 550)(glycylglycine)(glycylglycylpaclitaxel)phosphazene] [Example 2]” as the compound, how does the “Gel solidity” value [1] read?
The value was 230 Pa · s.

And the “Max. gelling temp. (temperature where the viscosity of the polymer solution reaches the maximum point)” value [1]?
Its value is 38 °C.

And the “Anti-cancer activity [IC50]” value ([2]; MCF-7, 2nd day)?
Its value is 0.027 µg/mL.

What about the “Anti-cancer activity [IC50]” value ([2]; MCF-7, 3rd day) of the same compound?
Its value is 0.021 µg/mL.

What about the “Anti-cancer activity [IC50]” value ([2]; MCF-7, 4th day) of the same compound?
Its value is 0.007 µg/mL.

And the “Anti-cancer activity [IC50]” value ([3]; 2nd day)?
Its value is 0.082 µg/mL.

And the “Anti-cancer activity [IC50]” value ([3]; 3rd day)?
The value was 0.079 µg/mL.

What about the “Anti-cancer activity [IC50]” value ([3]; 4th day) of the same compound?
The value was 0.048 µg/mL.
